In patent US20230117831A1, “MULTI-FUNCTIONAL CHIMERIC MOLECULES” (THE BROAD INSTITUTE, INC., priority 2020, published 2023):
Entries after “also recorded” stand apart in the source; their conditions may differ.

Experiments:
PKCalpha [1] = biological target: T1, PKCalpha (Homo sapiens, UniProt P17252); settings: cited from earlier work
PKC beta = PKC beta (Homo sapiens, UniProt P05771); settings: cited from earlier work
PKC gamma = PKC gamma (Homo sapiens, UniProt P05129); settings: cited from earlier work
PKC delta = PKC delta (Homo sapiens, UniProt Q05655); settings: cited from earlier work
PKC epsilon = biological target: T2, PKC epsilon (Homo sapiens, UniProt Q02156); settings: cited from earlier work
T2 sequence (Q02156 1-737): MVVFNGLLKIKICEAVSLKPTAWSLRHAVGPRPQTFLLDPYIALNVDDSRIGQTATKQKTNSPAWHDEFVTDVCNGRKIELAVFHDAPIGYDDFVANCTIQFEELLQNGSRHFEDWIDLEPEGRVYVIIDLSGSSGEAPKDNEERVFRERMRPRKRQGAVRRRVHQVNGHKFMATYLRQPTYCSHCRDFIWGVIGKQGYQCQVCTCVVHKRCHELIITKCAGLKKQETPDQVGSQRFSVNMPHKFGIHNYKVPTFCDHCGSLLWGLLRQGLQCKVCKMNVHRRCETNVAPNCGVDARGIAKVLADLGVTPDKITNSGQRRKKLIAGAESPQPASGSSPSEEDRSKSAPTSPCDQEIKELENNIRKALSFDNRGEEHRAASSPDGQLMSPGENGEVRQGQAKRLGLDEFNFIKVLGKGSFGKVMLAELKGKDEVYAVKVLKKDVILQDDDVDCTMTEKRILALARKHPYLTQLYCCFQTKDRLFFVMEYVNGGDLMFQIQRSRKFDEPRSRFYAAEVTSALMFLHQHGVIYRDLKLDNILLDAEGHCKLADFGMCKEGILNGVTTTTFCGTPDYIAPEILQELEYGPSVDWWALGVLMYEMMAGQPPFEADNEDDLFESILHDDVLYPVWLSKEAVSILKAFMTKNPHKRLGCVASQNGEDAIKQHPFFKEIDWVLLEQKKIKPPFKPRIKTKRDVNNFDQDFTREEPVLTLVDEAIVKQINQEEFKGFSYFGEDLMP

[2] = tested on: breast carcinoma cell lines MCF-7 and MDA-MB-231; settings: cited from earlier work
PKCalpha [3] = biological target: T1, PKCalpha; settings: cited from earlier work; remark: listed apart in the source
[4] = tested on: lung cancer and HeLa cervical adenocarcinoma cells; settings: formation of membrane ruffles; cited from earlier work
PKCδ = PKCδ (Homo sapiens, UniProt Q05655); settings: cited from earlier work
ABL [5] = biological target: T3, ABL (Homo sapiens, UniProt P00519); experiment: ADP-Glo ABL activation; type: biochemical
Text: To expand the scope of PHICS beyond the Ser/Thr kinases (AMPK or PKC), Applicants will develop PHICS using the Abelson (ABL) family that are nonreceptor tyrosine kinases with SH3-SH2-TK ([…]) domains (42, 43). An autoinhibitory mechanism involving intramolecular interactions stabilizes this kinase in a “locked” conformation, inhibiting kinase activity unless the SH3 domain interactions are disrupted by binding of an activator. The SH2 domain of ABL is responsible for substrate specificity: if the SH2 domain is exchanged for another protein's SH2 domain, then substrate specificity is altered (43). […] Both DPH and DPH with linker (FIG. 83B) activated ABL in […] (FIG. 83C).

ABL [6] = biological target: T3, ABL; settings: cited from earlier work
VEGFR = VEGFR (Homo sapiens, UniProt P35968); settings: cited from earlier work
BRD4 and PKC (α-isoform) = biological target: T4, BRD4 and PKC (α-isoform) (Homo sapiens, UniProt O60885+P17252); experiment: AlphaScreen ternary complex formation; type: binding
T4 construct: BRD4-His tag (BD1 and BD2 (49-460))(31045); purchased BPS Bioscience (BRD4); SignalChem (PKCα) 31045; P61-18G
Protocol: A similar approach was followed to determine the PHICS2 induced ternary complex formation between PKC: PHICS2: BRD4-GST (BD1 and BD2). Initially, concentration series of PHICS (2.1, 2.2, 2.3, 2.4 and 2.5) with different linkers and (R)-PHICS2.3 with DMSO control were prepared in a white opaque 384-well microplate using a dilution assay buffer with 1% DMSO in the final mixture. Then 10 nM PKC-GST and 100 nM BRD4 (6×His tag) were added to the mixture and incubated at room temperature. Following 1 hr incubation, acceptor beads and donor beads were added to the system.

BRD4 (PKCα) = biological target: T5, BRD4 (PKCα) (Homo sapiens, UniProt O60885+P17252); experiment: BRD4 phosphorylation by PKC, western blot; type: biochemical
T5 construct: BRD4-GST (BD1 and BD2 (49-460))(31044); GST; purchased BPS Bioscience (BRD4); SignalChem (PKCα) 31044; P61-18G
Protocol: Kinase reaction was performed using 1 μM PHICS (2.1, 2.2, 2.3, 2.4, 2.5 and (R)-2.3), 50 nM PKC, 700 nM BRD4-GST and 50 μM ATP for 1 hr at room temperature before quenching with SDS loading buffer. Proteins were resolved in NuPAGE 4-12% Bis-Tris protein gels and transferred to a PVDF membrane. After incubation of the membrane with the blocking buffer, phospho-PKC substrate motif [(R/K)XpSX(R/K)] (Cell Signaling, Cat #6967) (1:1000) primary antibody was added to the membrane and further incubated at 4° C. for overnight. HRP-conjugated secondary antibodies or IRDye 800CW/IRDye 680RD secondary antibodies were used to visualize the protein bands.
(§1) Similar approaches were followed to determine the phosphorylation of BRD4 with different AMPK and PKC isoforms as well as phosphorylation of different BRD proteins.

BRD4 (PKC) = biological target: T6, BRD4 (PKC) (Homo sapiens, UniProt O60885+P17252); experiment: ADP-Glo turnover assay, PKC + BRD4-GST; type: biochemical; settings: limiting PKC 50 nM; iPHICS2 as negative control
T6 construct: BRD4-GST (BD1 and BD2 (49-460))(31044); GST; purchased BPS Bioscience (BRD4); SignalChem (PKCα) 31044; P61-18G
Protocol: The same protocol was followed for PHICS2.3 as well. Initially, 1 μM of PHICS2.3 and (R)-PHICS2.3 were prepared in a 96 well plate (white, flat bottom) using kinase assay buffer and incubated with 50 nM PKC and 700 nM BRD4-GST (BD1 and BD2) for 1 hr at room temperature in the presence of 50 μM ATP before adding ADP-Glo reagents.

BRD4 (PKCβI) = biological target: T7, BRD4 (PKCβI) (Homo sapiens, UniProt O60885+P05771); experiment: BRD4 phosphorylation by PKC isoform, western blot; type: biochemical
T7 construct: BRD4-GST (BD1 and BD2 (49-460))(31044); purchased SignalChem (PKC); BPS Bioscience (BRD4) P62-18G; 31044
Text: as §1

BRD4 (PKCβII) = biological target: T8, BRD4 (PKCβII) (Homo sapiens, UniProt O60885+P05771); experiment: BRD4 phosphorylation by PKC isoform, western blot; type: biochemical
T8 construct: BRD4-GST (BD1 and BD2 (49-460))(31044); purchased SignalChem (PKC); BPS Bioscience (BRD4) P63-18G; 31044
Text: as §1

BRD4 (PKCγ) = biological target: T9, BRD4 (PKCγ) (Homo sapiens, UniProt O60885+P05129); experiment: BRD4 phosphorylation by PKC isoform, western blot; type: biochemical
T9 construct: BRD4-GST (BD1 and BD2 (49-460))(31044); purchased SignalChem (PKC); BPS Bioscience (BRD4) P66-18G; 31044
Text: as §1

BRD4 (PKCδ) = biological target: T10, BRD4 (PKCδ) (Homo sapiens, UniProt O60885+Q05655); experiment: BRD4 phosphorylation by PKC isoform, western blot; type: biochemical
T10 construct: BRD4-GST (BD1 and BD2 (49-460))(31044); purchased SignalChem (PKC); BPS Bioscience (BRD4) P64-18G; 31044
Text: as §1

BTK (Ser180) [7] = biological target: BTK (Ser180) (Homo sapiens, UniProt Q06187+Q13131+Q9Y478); experiment: in vitro BTK phosphorylation by AMPK, western blot; type: biochemical; settings: phospho BTK (Ser180) antibody
Protocol: FIG. 69—In-vitro biochemical validation of BTK phosphorylation by AMPK in the presence of PHICS. Western blot analysis for BTK phosphorylation using 10 μM BTK targeting AMPK-PHICS with different linkers for identification of the optimal molecule for further studies.

[8] = tested on: AMPK:PHICS3:BTK ternary complex; experiment: co-immunoprecipitation of AMPK with BTK-Flag in HEK293T cells; type: cell-based; settings: HEK293T transfected with BTK-Flag
Protocol: Co-immunoprecipitation was performed to evaluate the ternary complex (AMPK: PHICS3: BTK) formation in HEK293T cells after overexpressing the BTK, which is otherwise absent in these cells. HEK293T cells were cultured in DMEM supplemented with 10% FBS, penicillin (100 units/mL) and streptomycin (100 μg/mL). Cells were maintained at 37° C. in 5% CO2 humidified atmosphere.
After 36 hrs transfection of pcDNA3.1(+) BTK-Flag plasmid using TransIT®-293 Transfection Reagent, HEK 293T cells were maintained in a serum-free media overnight before incubation with compounds. After that, cells were treated with 5 μM concentration of AMPK activator or BTK binder or PHICS3 or DMSO control for 4 hrs in a fresh serum-free media before cells were lysed on ice in a lysis buffer (M-PER™ Mammalian Protein Extraction Reagent, Halt™ Protease and Phosphatase Inhibitor Cocktail (2×) and 50 mM NaF). Next, the protein concentrations of cell lysates were measured using Pierce™ BCA Protein Assay Kit. Equal amounts of cell lysates were incubated with Anti-FLAG® M2 Magnetic Beads overnight at 4° C. […] Eluted proteins were analyzed by western blotting using AMPK-α rabbit antibody (Cell Signaling, Cat #5832) or Flag mouse antibody (Cell Signaling, Cat #8146) (1:2000) or Beta-actin mouse antibody (Cell Signaling, Cat #3700) (1:2000).

BTK (Ser180) [9] = biological target: BTK (Ser180) (Homo sapiens, UniProt Q06187); experiment: BTK Ser180 phosphorylation in HEK293T cells, western blot; type: cell-based
BTK (Ser180) [10] = biological target: T11, BTK (Ser180) (Homo sapiens, UniProt Q06187, D539N); experiment: as above; type: cell-based; settings: BTK D539N mutant
T11 construct: expressed in transfected cells; host or cells: HEK293T

BTK (Ser180) [11] = biological target: T12, BTK (Ser180) (Homo sapiens, UniProt Q06187, K430R); experiment: as above; type: cell-based; settings: BTK K430R mutant
T12 construct: expressed in transfected cells; host or cells: HEK293T

BTK (Ser180) [12] = biological target: T13, BTK (Ser180) (Homo sapiens, UniProt Q06187, S180A); experiment: as above; type: cell-based; settings: BTK-Flag S180A mutant
T13 construct: expressed in transfected cells; host or cells: HEK293T

BTK (Ser180) [13] = biological target: T14, BTK (Ser180) (Homo sapiens, UniProt Q06187, T474A); experiment: as above; type: cell-based; settings: BTK T474A mutant
T14 construct: expressed in transfected cells; host or cells: HEK293T
T14 sequence (Q06187 2-659 T474A): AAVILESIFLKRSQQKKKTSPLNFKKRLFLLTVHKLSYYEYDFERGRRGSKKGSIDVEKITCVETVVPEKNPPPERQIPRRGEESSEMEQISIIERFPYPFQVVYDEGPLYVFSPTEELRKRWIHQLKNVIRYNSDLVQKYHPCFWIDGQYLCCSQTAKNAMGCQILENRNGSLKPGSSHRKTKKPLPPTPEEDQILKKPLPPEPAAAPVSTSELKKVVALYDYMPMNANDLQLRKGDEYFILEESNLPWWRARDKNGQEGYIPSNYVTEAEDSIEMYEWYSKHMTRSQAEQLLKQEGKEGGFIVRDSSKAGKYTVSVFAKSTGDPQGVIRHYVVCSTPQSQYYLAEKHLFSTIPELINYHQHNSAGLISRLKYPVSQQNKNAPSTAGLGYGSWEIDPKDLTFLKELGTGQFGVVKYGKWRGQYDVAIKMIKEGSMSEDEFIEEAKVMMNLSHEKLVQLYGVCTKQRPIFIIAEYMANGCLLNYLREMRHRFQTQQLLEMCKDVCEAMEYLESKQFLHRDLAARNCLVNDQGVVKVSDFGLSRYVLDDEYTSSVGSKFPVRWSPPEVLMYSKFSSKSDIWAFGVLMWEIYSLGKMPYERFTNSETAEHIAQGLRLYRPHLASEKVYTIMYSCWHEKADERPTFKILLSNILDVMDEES

Chain of BTK (Ser180) (Homo sapiens, UniProt Q06187) (Q06187 2-659): as the sequence (Q06187 2-659 T474A) above, with A473T counted along it
Chain of PKC delta (Q05655 whole entry): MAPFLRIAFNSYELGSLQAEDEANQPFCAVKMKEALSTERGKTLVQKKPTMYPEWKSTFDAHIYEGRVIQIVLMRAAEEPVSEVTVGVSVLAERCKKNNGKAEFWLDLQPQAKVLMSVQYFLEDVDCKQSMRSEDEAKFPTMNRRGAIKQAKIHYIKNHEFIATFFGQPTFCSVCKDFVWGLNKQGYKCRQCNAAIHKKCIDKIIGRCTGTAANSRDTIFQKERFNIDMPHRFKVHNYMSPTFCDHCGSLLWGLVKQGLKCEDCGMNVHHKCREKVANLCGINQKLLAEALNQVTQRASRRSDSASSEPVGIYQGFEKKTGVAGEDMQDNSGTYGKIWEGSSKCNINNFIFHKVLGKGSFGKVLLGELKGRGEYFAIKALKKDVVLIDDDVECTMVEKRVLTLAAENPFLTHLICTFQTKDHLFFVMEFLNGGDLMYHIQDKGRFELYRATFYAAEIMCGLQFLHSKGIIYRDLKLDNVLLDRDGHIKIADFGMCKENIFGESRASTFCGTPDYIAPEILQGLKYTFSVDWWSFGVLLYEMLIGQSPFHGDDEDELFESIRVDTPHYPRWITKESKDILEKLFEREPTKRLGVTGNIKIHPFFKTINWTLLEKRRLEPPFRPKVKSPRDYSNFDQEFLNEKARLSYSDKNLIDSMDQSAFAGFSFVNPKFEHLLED
Chain of BTK (Ser180) (Homo sapiens, UniProt Q06187+Q13131+Q9Y478) (Q06187 whole entry): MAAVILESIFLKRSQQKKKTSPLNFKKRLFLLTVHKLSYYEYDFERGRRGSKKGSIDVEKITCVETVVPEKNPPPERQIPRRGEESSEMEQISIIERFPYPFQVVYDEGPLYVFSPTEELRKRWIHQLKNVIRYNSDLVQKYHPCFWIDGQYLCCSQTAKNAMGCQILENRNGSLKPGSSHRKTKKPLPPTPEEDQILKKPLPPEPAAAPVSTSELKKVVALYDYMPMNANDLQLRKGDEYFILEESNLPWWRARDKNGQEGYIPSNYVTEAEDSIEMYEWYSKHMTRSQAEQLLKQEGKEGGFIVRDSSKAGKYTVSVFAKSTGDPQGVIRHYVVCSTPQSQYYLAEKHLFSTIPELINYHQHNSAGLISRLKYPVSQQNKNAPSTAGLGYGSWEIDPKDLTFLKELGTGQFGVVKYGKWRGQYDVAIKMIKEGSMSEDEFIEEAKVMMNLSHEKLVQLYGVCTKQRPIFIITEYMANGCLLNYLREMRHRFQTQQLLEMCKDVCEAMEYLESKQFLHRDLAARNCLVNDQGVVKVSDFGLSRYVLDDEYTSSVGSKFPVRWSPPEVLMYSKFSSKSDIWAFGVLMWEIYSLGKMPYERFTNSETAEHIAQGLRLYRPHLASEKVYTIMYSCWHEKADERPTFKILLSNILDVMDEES
Chain of BTK (Ser180) (Homo sapiens, UniProt Q06187+Q13131+Q9Y478) (Q13131 whole entry): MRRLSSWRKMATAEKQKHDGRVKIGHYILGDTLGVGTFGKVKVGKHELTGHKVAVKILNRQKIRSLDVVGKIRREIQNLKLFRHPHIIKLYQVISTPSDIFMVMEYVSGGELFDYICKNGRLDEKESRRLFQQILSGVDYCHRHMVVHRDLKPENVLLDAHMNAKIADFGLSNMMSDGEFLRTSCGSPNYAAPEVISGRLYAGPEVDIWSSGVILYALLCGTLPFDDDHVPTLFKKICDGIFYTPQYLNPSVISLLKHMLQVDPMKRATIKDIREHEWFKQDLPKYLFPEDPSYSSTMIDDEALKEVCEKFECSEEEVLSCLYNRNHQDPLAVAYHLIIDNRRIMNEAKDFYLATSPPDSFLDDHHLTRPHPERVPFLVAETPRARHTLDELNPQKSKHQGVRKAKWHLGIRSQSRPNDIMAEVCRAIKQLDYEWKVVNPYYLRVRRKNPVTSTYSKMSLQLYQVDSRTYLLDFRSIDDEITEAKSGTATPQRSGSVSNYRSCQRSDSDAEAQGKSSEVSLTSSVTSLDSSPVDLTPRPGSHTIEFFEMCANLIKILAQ
Chain of BTK (Ser180) (Homo sapiens, UniProt Q06187+Q13131+Q9Y478) (Q9Y478 whole entry): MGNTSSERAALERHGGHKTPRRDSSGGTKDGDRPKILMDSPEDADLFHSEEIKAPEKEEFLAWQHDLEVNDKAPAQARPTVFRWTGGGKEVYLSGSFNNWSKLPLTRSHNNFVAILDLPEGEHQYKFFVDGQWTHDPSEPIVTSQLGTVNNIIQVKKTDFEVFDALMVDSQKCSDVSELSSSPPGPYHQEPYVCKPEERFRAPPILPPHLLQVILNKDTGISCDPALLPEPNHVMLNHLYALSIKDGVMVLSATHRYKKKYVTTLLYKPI
Chain of BTK (Ser180) (Homo sapiens, UniProt Q06187+Q13131+Q9Y478) (P54619 whole entry partner): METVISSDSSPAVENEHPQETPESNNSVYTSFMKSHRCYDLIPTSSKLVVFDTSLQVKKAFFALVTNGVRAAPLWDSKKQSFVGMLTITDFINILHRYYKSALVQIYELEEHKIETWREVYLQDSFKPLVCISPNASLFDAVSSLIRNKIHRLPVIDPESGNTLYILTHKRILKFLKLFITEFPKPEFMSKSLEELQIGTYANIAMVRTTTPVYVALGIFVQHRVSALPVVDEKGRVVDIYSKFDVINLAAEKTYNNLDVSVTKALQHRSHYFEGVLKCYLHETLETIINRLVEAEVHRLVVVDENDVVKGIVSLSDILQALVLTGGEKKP
Chain of PKC beta (P05771 whole entry): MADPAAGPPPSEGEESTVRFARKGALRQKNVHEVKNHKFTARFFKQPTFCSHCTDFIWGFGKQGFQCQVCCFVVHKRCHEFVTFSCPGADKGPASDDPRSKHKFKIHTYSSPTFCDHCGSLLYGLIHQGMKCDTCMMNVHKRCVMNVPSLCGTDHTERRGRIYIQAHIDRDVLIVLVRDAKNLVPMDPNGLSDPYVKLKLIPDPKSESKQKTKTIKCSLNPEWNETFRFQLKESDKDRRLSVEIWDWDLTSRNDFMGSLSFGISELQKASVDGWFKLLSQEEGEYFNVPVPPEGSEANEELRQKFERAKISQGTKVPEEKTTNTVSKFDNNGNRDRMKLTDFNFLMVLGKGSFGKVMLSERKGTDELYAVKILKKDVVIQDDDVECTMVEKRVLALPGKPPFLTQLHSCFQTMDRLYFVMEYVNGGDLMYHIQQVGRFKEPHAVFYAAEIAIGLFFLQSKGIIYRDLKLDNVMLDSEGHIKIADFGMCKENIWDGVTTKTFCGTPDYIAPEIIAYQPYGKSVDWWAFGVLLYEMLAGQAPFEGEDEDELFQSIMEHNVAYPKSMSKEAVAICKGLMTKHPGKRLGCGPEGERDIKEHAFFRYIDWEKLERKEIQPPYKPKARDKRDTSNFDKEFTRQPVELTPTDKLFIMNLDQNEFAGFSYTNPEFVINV
Chain of PKCδ (Q05655 whole entry): as the sequence (Q05655 whole entry) above
T10 sequence (Q05655 whole entry, other chains not shown, canonical isoform): as the sequence (Q05655 whole entry) above
T11 sequence (Q06187 2-659 D539N): as the sequence (Q06187 2-659 T474A) above, with A473T, D538N counted along it
T13 sequence (Q06187 2-659 S180A): as the sequence (Q06187 2-659 T474A) above, with S179A, A473T counted along it
T12 sequence (Q06187 2-659 K430R): as the sequence (Q06187 2-659 T474A) above, with K429R, A473T counted along it

SMILES: CCCCCCCCC#Cc1ccc2c(c1)C[C@@H](CO)NC(=O)[C@H](C(C)C)N2C
- Kd (PKCalpha [1]): 14.7 nM
- Kd (PKC beta): 17.4 nM
- Kd (PKC gamma): 40.7 nM
- Kd (PKC delta): 122 nM
- Kd (PKC epsilon): 142 nM
- antiproliferative activity against breast carcinoma [2]: antiproliferative activity
- down-regulation of PKCalpha (PKCalpha [3]): preferentially down-regulates PKCalpha

SMILES: CC(C)CC(C/C=C1\CC(CO)(COC(=O)C(C)(C)C)OC1=O)CC(C)C (stereo not shown) [AJH-836]
- Kd (PKCalpha [1]): 23.6 nM
- Kd (PKC beta): 19.7 nM
- Kd (PKC delta): 1.89 nM
- Kd (PKC epsilon): 1.89 nM
- cytoskeletal reorganization [4]: AJH-836 induced major changes in cytoskeletal reorganization in lung cancer and HeLa cervical adenocarcinoma cells as determined by the formation of membrane ruffles
- PKC isoform selectivity (PKCδ): selective for PKCδ and PKC

SMILES: O=C1NC(=O)C(c2cn(-c3ccccc3)nc2-c2ccc(F)cc2)N1 (stereo not shown) [DPH, 5-[3-(4-fluorophenyl)-1-phenyl-1H-pyrazol-4-yl]-2,4-imidazolidinedione]
- ABL activation (ADP-Glo) (ABL [5]): activated
- Kd (ABL [6]): 137 nM

SMILES: COc1cc2nccc(Oc3ccc(NC(=O)NC4CC4)c(Cl)c3)c2cc1C(N)=O [Lenvatinib]
- Residence time (VEGFR): 17 min

SMILES: Cc1sc2c(c1C)C(c1ccc(Cl)cc1)=NC(CC(=O)NCCCCCC(=O)NCc1ccc(COc3ccc4c(c3)N(C)[C@@H](C(C)C)C(=O)N[C@H](CO)C4)cc1)c1nnc(C)n1-2 (stereo partly shown) [PHICS2.3]
- ternary complex formation (AlphaScreen), BRD4 and PKC (BRD4 and PKC (α-isoform)): displayed the bell-shaped curve
- BRD4 phosphorylation level (BRD4 (PKCα)): highest BRD4 phosphorylation
- calculated ADP production (BRD4 (PKC)): 740 ± 31 nM
- BRD4 phosphorylation level (BRD4 (PKCβI)): modest phosphorylation
- BRD4 phosphorylation level (BRD4 (PKCβII)): modest phosphorylation
- BRD4 phosphorylation level (BRD4 (PKCγ)): only minor phosphorylation
- BRD4 phosphorylation level (BRD4 (PKCδ)): only minor phosphorylation

SMILES: Nc1ncnc2c1c(-c1ccc(Oc3ccccc3)cc1)nn2[C@@H]1CCCN(C(=O)CCCCCCCCC(=O)NCCOc2ccc(-c3cc4c(C(=O)O)c[nH]c4cc3Cl)cc2)C1 [PHICS3]
- in vitro BTK phosphorylation (linker comparison) (BTK (Ser180) [7]): most optimal molecule for phosphorylation; also recorded: optimum
- ternary complex formation inside the cells (co-immunoprecipitation) [8]: co-immunoprecipitation of AMPK with BTK
- BTK phosphorylation at Ser180 (BTK (Ser180) [9]; WT BTK-Flag): optimal molecule for phosphorylation; also recorded: able to detect PHICS-mediated BTK phosphorylation at Ser180
- BTK phosphorylation at Ser180 (BTK (Ser180) [9]; pre-treatment with covalent BTK binder ibrutinib): demolished the ability of PHICS3 to induce BTK phosphorylation
- BTK phosphorylation at Ser180 (BTK (Ser180) [10]): markedly reduced
- BTK phosphorylation at Ser180 (BTK (Ser180) [11]): markedly reduced
- BTK phosphorylation at Ser180 (BTK (Ser180) [12]): phosphorylation was not detected
- BTK phosphorylation at Ser180 (BTK (Ser180) [13]): drastically lowered BTK phosphorylation
